According to PubChem BioAssay AID270 (DTP/NCI, 2004):
Records with an inconclusive call do not appear. Rule for the calls: active = survival T/C of 150% or more; inactive = T/C below 125% in these data.

Tested on: BDF1 mice, s.c. Lewis lung carcinoma, T/C %
Assay: NCI In Vivo Anticancer Drug Screen. Data for tumor model Lewis Lung Carcinoma (subcutaneous) in B6D2F1 (BDF1) mice
Details: endpoint: median survival time, schedule: Q01DX009 (ip), higher = longer survival
How it was run: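 The value reflects a ratio in which the treated cohort's survival time or tumour size is compared against mice receiving only vehicle.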

Measured: T/C

CC(=O)NC(Cc1ccc(N(CCCl)CCCl)cc1)C(=O)O (centres undefined)
inactive: dose: 3.13 mg/kg/injection, vehicle: other 104 % of control | dose: 6.25 mg/kg/injection, vehicle: other 120 % of control | dose: 25.0 mg/kg/injection, vehicle: other 114 % of control

CC(=O)[O][Hg][c]1c(C)c(C)c(C)c(C)c1C
inactive: dose: 0.62 mg/kg/injection, vehicle: Klucel (hydroxypropylcellulose) (HPC) 93 % of control | dose: 1.25 mg/kg/injection, vehicle: Klucel (hydroxypropylcellulose) (HPC) 93 % of control | dose: 2.5 mg/kg/injection, vehicle: Klucel (hydroxypropylcellulose) (HPC) 100 % of control | dose: 5.0 mg/kg/injection, vehicle: Klucel (hydroxypropylcellulose) (HPC) 105 % of control | dose: 6.0 mg/kg/injection, vehicle: Klucel (hydroxypropylcellulose) (HPC) 92 % of control | dose: 6.25 mg/kg/injection, vehicle: Klucel (hydroxypropylcellulose) (HPC) 92 % of control
